According to patent publication US12241085B2, “Human pluripotent stem cell derived neurodegenerative disease models on a microfluidic chip” (priority 2018, dated 2025):

Legend:
[1] = as stated for the marketed drug; cited from earlier work
[2] = test system: iBMECs co-cultured with primary human astrocytes and pericytes; test: TNFα perfusion of blood compartment of organ-chip with iBMECs, astrocytes and pericytes; type: cell-based; conditions: 10 or 100 ng/ml overnight in blood compartment
Description: While astrocytes and iBMECs can remain in their respective channels, astrocytes processes protruded through the pores to form direct cell-to-cell contact with the iBMECs, mimicking the astrocyte-end-feet observed in vivo.
In order to quantify the percentage of vascular surface covered with astrocyte protrusions (end-feet like structures), the vascular surface of the are washed in DMEM (without FBS) and stained with the fluorescently labeled wheat germ agglutinin (WGA-647 Invitrogen), a […] able to bind to the vascular glycocalyx (DOI: 10.1002jemt.22602). After 15 minutes at room temperature, chips were rinsed twice with fresh DMEM, fixed in 2% PFA for 20 minutes at room temperature and stained for the astrocyte marker GFAP (Abcam). Following incubation with the anti-mouse secondary antibody (Invitrogen, Alexa Fluor 488) and HOECHS (Abcam) chips were washed in PBS and imaged via confocal microscopy (Zeiss LSM850).
The area underneath the porous membrane was localized using the WGA-647 signal (that stained the whole endothelial surface) and the nuclear fluorescence signal (HOECHST) of endothelial cells. Then, five random areas of each chip were imaged using the GFAP fluorescent (488) signal using a 10× objective (Zeiss). ImageJ software was used to subtract background and then convert the digital signal detected in the GFAP channel into a binary image. Finally, percentage of signal coverage was computed from the binary image as the ratio of bright pixels to the total number of pixels in the image. Image processing and quantification was performed with an automatic macro compiled in ImageJ in order to ensure unbiased signal measurements. Numerical values were collected and statistically analyzed using Graphpad Prism V7.

Compound: CC[C@@H](C(N)=O)N1CCCC1=O [Levetiracetam]
- known BBB permeability [1]: can efficiently penetrate the BBB

Compound: TNFα
- blood-to-brain leakage of dextran after vascular stimulation [2]: increase in blood-to-brain leakage
- astrocyte end-feet-like structures covering the vascular surface ([2]; vs control): decrease in end-feet-like structures
- astrocyte morphology ([2]; vs control): change in astrocyte morphology
